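Tested at 5 concentrations; 48 h exposure; 96-well plates; endpoints linearly interpolated, else capped at highest concentration. The concentration for full growth arrest is given as TGI.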
Legend:
Experiment in all cases: NCI-60 cell line screen, 48 h
HS 578T breast = system: HS 578T breast
K-562 leukemia = system: K-562 leukemia
SK-OV-3 ovarian = system: SK-OV-3 ovarian
OVCAR-8 ovarian = system: OVCAR-8 ovarian
M14 melanoma = system: M14 melanoma
MDA-MB-435 = system: MDA-MB-435
SNB-75 CNS = system: SNB-75 CNS
OVCAR-4 ovarian = system: OVCAR-4 ovarian
T-47D breast = system: T-47D breast
LOX IMVI melanoma = system: LOX IMVI melanoma
KM20L2 colon = system: KM20L2 colon
RXF 393 renal = system: RXF 393 renal
OVCAR-3 ovarian = system: OVCAR-3 ovarian
A549 NSCLC = system: A549 NSCLC
SF-268 CNS = system: SF-268 CNS
SR leukemia = system: SR leukemia
HCT-116 colon = system: HCT-116 colon
NCI/ADR-RES ovarian = system: NCI/ADR-RES ovarian
NCI-H226 lung = system: NCI-H226 lung
HOP-62 NSCLC = system: HOP-62 NSCLC
TK-10 renal = system: TK-10 renal
CCRF-CEM leukemia = system: CCRF-CEM leukemia
SN12C renal = system: SN12C renal
OVCAR-5 ovarian = system: OVCAR-5 ovarian
HCT-15 colon = system: HCT-15 colon
IGROV1 ovarian = system: IGROV1 ovarian
HOP-92 NSCLC = system: HOP-92 NSCLC
NCI-H23 lung = system: NCI-H23 lung
MCF7 breast = system: MCF7 breast
SW-620 colon = system: SW-620 colon
PC-3 prostate = system: PC-3 prostate
RPMI-8226 leukemia = system: RPMI-8226 leukemia
HL-60(TB) leukemia = system: HL-60(TB) leukemia
EKVX NSCLC = system: EKVX NSCLC
M19-MEL melanoma = system: M19-MEL melanoma
SF-539 CNS = system: SF-539 CNS
KM12 colon = system: KM12 colon
MDA-MB-231 breast = system: MDA-MB-231 breast
SNB-19 CNS = system: SNB-19 CNS
SNB-78 CNS = system: SNB-78 CNS
CAKI-1 renal = system: CAKI-1 renal
NCI-H522 lung = system: NCI-H522 lung
SK-MEL-28 melanoma = system: SK-MEL-28 melanoma
LXFL 529 NSCLC = system: LXFL 529 NSCLC
SK-MEL-2 melanoma = system: SK-MEL-2 melanoma
DU-145 prostate = system: DU-145 prostate
ACHN renal = system: ACHN renal
786-0 renal = system: 786-0 renal
SK-MEL-5 melanoma = system: SK-MEL-5 melanoma
COLO 205 colon = system: COLO 205 colon
U251 CNS = system: U251 CNS
MDA-N = system: MDA-N
HCC-2998 colon = system: HCC-2998 colon
HT29 colon = system: HT29 colon
SF-295 CNS = system: SF-295 CNS
MOLT-4 leukemia = system: MOLT-4 leukemia
UO-31 renal = system: UO-31 renal
DMS 114 small cell lung = system: DMS 114 small cell lung
UACC-257 melanoma = system: UACC-257 melanoma
A498 renal = system: A498 renal
NCI-H460 lung = system: NCI-H460 lung
UACC-62 melanoma = system: UACC-62 melanoma
MALME-3M melanoma = system: MALME-3M melanoma
DLD-1 colon = system: DLD-1 colon
BT-549 breast = system: BT-549 breast

SMILES: CCCN=Cc1c(O)c(O)c(C(C)C)c2cc(C)c(-c3c(C)cc4c(C(C)C)c(O)c(O)c(C=NCCC)c4c3O)c(O)c12
- TGI (HS 578T breast): > 100 µM
- TGI (K-562 leukemia): > 82.7 µM
- TGI (SK-OV-3 ovarian): > 30.8 µM
- TGI (OVCAR-8 ovarian): > 100 µM
- TGI (M14 melanoma): > 21 µM
- TGI (MDA-MB-435): > 100 µM
- TGI (SNB-75 CNS): > 100 µM
- TGI (OVCAR-4 ovarian): > 100 µM
- TGI (T-47D breast): > 100 µM
- TGI (LOX IMVI melanoma): 24.5 µM
- TGI (KM20L2 colon): > 100 µM
- TGI (RXF 393 renal): 16.5 µM
- TGI (OVCAR-3 ovarian): > 24.4 µM
- TGI (A549 NSCLC): > 100 µM
- TGI (SF-268 CNS): > 100 µM
- TGI (SR leukemia): > 100 µM
- TGI (HCT-116 colon): 14.3 µM
- TGI (NCI/ADR-RES ovarian): > 100 µM
- TGI (NCI-H226 lung): 47.8 µM
- TGI (HOP-62 NSCLC): > 77.4 µM
- TGI (TK-10 renal): > 100 µM
- TGI (CCRF-CEM leukemia): 13.4 µM
- TGI (SN12C renal): 93.6 µM
- TGI (OVCAR-5 ovarian): > 50.3 µM
- TGI (HCT-15 colon): 48.1 µM
- TGI (IGROV1 ovarian): > 100 µM
- TGI (HOP-92 NSCLC): 8.51 µM
- TGI (NCI-H23 lung): > 81.9 µM
- TGI (MCF7 breast): 71.1 µM
- TGI (SW-620 colon): > 100 µM
- TGI (PC-3 prostate): 62.2 µM
- TGI (RPMI-8226 leukemia): > 100 µM
- TGI (HL-60(TB) leukemia): > 23.6 µM
- TGI (EKVX NSCLC): > 100 µM
- TGI (M19-MEL melanoma): 20.1 µM
- TGI (SF-539 CNS): > 28.8 µM
- TGI (KM12 colon): > 32.6 µM
- TGI (MDA-MB-231 breast): > 100 µM
- TGI (SNB-19 CNS): > 100 µM
- TGI (SNB-78 CNS): 13.4 µM
- TGI (CAKI-1 renal): > 100 µM
- TGI (NCI-H522 lung): 5.73 µM
- TGI (SK-MEL-28 melanoma): > 78.3 µM
- TGI (LXFL 529 NSCLC): 14.7 µM
- TGI (SK-MEL-2 melanoma): 7.44 µM
- TGI (DU-145 prostate): > 100 µM
- TGI (ACHN renal): > 30.7 µM
- TGI (786-0 renal): 39.3 µM
- TGI (SK-MEL-5 melanoma): 49.1 µM
- TGI (COLO 205 colon): > 32.3 µM
- TGI (U251 CNS): 44.8 µM
- TGI (MDA-N): > 100 µM
- TGI (HCC-2998 colon): 44.3 µM
- TGI (HT29 colon): > 24.9 µM
- TGI (SF-295 CNS): > 24.7 µM
- TGI (MOLT-4 leukemia): > 70.1 µM
- TGI (UO-31 renal): 22.6 µM
- TGI (DMS 114 small cell lung): 4.54 µM
- TGI (UACC-257 melanoma): > 40.1 µM
- TGI (A498 renal): 65.3 µM
- TGI (NCI-H460 lung): > 61.1 µM

SMILES: c1ccc(C2(c3ccccc3)SSC3(S2)C2CC4CC(C2)CC3C4)cc1 (centres undefined)
- TGI (K-562 leukemia): > 100 µM
- TGI (SK-OV-3 ovarian): > 100 µM
- TGI (OVCAR-8 ovarian): > 100 µM
- TGI (M14 melanoma): > 100 µM
- TGI (SNB-75 CNS): > 100 µM
- TGI (OVCAR-4 ovarian): > 100 µM
- TGI (LOX IMVI melanoma): > 100 µM
- TGI (KM20L2 colon): > 100 µM
- TGI (RXF 393 renal): > 100 µM
- TGI (A549 NSCLC): > 100 µM
- TGI (SF-268 CNS): > 100 µM
- TGI (SR leukemia): > 100 µM
- TGI (HCT-116 colon): > 100 µM
- TGI (UACC-62 melanoma): > 100 µM
- TGI (TK-10 renal): > 100 µM
- TGI (CCRF-CEM leukemia): > 100 µM
- TGI (SN12C renal): > 100 µM
- TGI (MALME-3M melanoma): > 100 µM
- TGI (OVCAR-5 ovarian): > 100 µM
- TGI (HCT-15 colon): > 100 µM
- TGI (IGROV1 ovarian): > 100 µM
- TGI (HOP-92 NSCLC): > 100 µM
- TGI (NCI-H23 lung): > 100 µM
- TGI (SW-620 colon): > 100 µM
- TGI (RPMI-8226 leukemia): > 100 µM
- TGI (HL-60(TB) leukemia): > 100 µM
- TGI (EKVX NSCLC): > 100 µM
- TGI (SF-539 CNS): > 100 µM
- TGI (KM12 colon): > 100 µM
- TGI (SNB-19 CNS): > 100 µM
- TGI (SNB-78 CNS): > 100 µM
- TGI (CAKI-1 renal): > 100 µM
- TGI (DLD-1 colon): > 100 µM
- TGI (SK-MEL-28 melanoma): > 100 µM
- TGI (LXFL 529 NSCLC): > 100 µM
- TGI (SK-MEL-2 melanoma): > 100 µM
- TGI (ACHN renal): > 100 µM
- TGI (786-0 renal): > 100 µM
- TGI (SK-MEL-5 melanoma): > 100 µM
- TGI (U251 CNS): > 100 µM
- TGI (HCC-2998 colon): > 100 µM
- TGI (HT29 colon): > 100 µM
- TGI (SF-295 CNS): > 100 µM
- TGI (MOLT-4 leukemia): > 100 µM
- TGI (UO-31 renal): > 100 µM
- TGI (DMS 114 small cell lung): > 100 µM
- TGI (UACC-257 melanoma): > 100 µM
- TGI (A498 renal): > 100 µM
- TGI (NCI-H460 lung): > 100 µM

SMILES: CC(=O)O[C@H]1C(=O)[C@@]2(C)[C@H]([C@H](OC(=O)c3ccccc3)[C@]3(O)C[C@H](OC(=O)[C@H](O)[C@@H](NC(=O)c4ccccc4)c4ccccc4C)C(C)=C1C3(C)C)[C@]1(OC(C)=O)CO[C@@H]1C[C@@H]2O
- TGI (HS 578T breast): 1.73 µM
- TGI (K-562 leukemia): 5.08 µM
- TGI (SK-OV-3 ovarian): > 12.7 µM
- TGI (OVCAR-8 ovarian): 12.7 µM
- TGI (M14 melanoma): 3.02 µM
- TGI (MDA-MB-435): 0.289 µM
- TGI (SNB-75 CNS): 10.1 µM
- TGI (OVCAR-4 ovarian): > 23.3 µM
- TGI (T-47D breast): > 25 µM
- TGI (LOX IMVI melanoma): > 25 µM
- TGI (RXF 393 renal): 3.97 µM
- TGI (OVCAR-3 ovarian): 4.87 µM
- TGI (A549 NSCLC): > 25 µM
- TGI (SF-268 CNS): > 25 µM
- TGI (SR leukemia): 4.06 µM
- TGI (HCT-116 colon): 9.15 µM
- TGI (NCI/ADR-RES ovarian): > 25 µM
- TGI (NCI-H226 lung): > 25 µM
- TGI (HOP-62 NSCLC): > 25 µM
- TGI (UACC-62 melanoma): > 15.8 µM
- TGI (TK-10 renal): 18.9 µM
- TGI (CCRF-CEM leukemia): 2.7 µM
- TGI (SN12C renal): > 25 µM
- TGI (MALME-3M melanoma): > 24 µM
- TGI (OVCAR-5 ovarian): 4.74 µM
- TGI (HCT-15 colon): > 25 µM
- TGI (IGROV1 ovarian): > 25 µM
- TGI (HOP-92 NSCLC): 24.2 µM
- TGI (NCI-H23 lung): > 11.6 µM
- TGI (MCF7 breast): > 16.1 µM
- TGI (SW-620 colon): > 25 µM
- TGI (PC-3 prostate): > 9.4 µM
- TGI (RPMI-8226 leukemia): 1.03 µM
- TGI (HL-60(TB) leukemia): 0.228 µM
- TGI (EKVX NSCLC): > 25 µM
- TGI (SF-539 CNS): 1.93 µM
- TGI (KM12 colon): 5.75 µM
- TGI (MDA-MB-231 breast): > 16.1 µM
- TGI (SNB-19 CNS): > 25 µM
- TGI (CAKI-1 renal): > 25 µM
- TGI (BT-549 breast): > 11.8 µM
- TGI (NCI-H522 lung): 4.29 µM
- TGI (SK-MEL-28 melanoma): > 15.2 µM
- TGI (SK-MEL-2 melanoma): 11.5 µM
- TGI (DU-145 prostate): > 20.6 µM
- TGI (ACHN renal): > 25 µM
- TGI (786-0 renal): 12.8 µM
- TGI (SK-MEL-5 melanoma): 3.05 µM
- TGI (COLO 205 colon): 1.79 µM
- TGI (U251 CNS): 6 µM
- TGI (MDA-N): 0.392 µM
- TGI (HCC-2998 colon): 7.11 µM
- TGI (HT29 colon): 18.4 µM
- TGI (SF-295 CNS): > 9.21 µM
- TGI (MOLT-4 leukemia): 5.35 µM
- TGI (UO-31 renal): > 24.2 µM
- TGI (UACC-257 melanoma): > 11.7 µM
- TGI (A498 renal): 9.4 µM
- TGI (NCI-H460 lung): > 11.3 µM

Source: PubChem BioAssay (NCI)
